Paper PMC7434514 (ChemMedChem, 2020)
pIC50, pKd, pKi: −log10 of the molar value. “And” between values parts separate entries of the source, which are not always exact repeats. Equal entries are not always repeated.

Tests used:
[1] = test system: NDM-1; details: read-out: IC50 against NDM-1; ref 19e, 20; cited from earlier work
[2] = test system: NDM-1 expressing Klebsiella pneumoniae; details: mouse infected with NDM-1 expressing Klebsiella pneumoniae; ref 19e, 20; cited from earlier work
[3] = biological target: T1, NDM-1 (Klebsiella pneumoniae, UniProt C7C422); assay: biochemical; details: for Percent Inhibition against NDM-1: meropenem substrate
Target sequence in this assay (C7C422 36-270): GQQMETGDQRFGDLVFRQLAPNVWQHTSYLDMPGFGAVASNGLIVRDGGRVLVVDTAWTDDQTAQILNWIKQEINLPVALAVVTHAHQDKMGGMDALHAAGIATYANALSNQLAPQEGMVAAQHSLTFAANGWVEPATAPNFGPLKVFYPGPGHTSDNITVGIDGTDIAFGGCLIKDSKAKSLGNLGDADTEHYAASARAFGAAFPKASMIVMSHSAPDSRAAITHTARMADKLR

[4] = biological target: T1, NDM-1; type: binding; details: 5 μM NDM-1, 200 μM inhibitor; native NDM-1 TM = 55.95±0.06 °C
Target sequence in this assay (C7C422 29-270, looked up): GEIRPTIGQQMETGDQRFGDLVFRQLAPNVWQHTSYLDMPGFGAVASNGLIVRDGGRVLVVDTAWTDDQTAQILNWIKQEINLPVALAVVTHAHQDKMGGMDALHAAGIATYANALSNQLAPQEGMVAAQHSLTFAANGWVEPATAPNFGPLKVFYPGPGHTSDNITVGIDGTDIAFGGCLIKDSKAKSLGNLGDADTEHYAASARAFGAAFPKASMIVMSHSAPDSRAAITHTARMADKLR

[5] = biological target: T1, NDM-1; type: binding; details: NDM-1 10 μM, inhibitor 50 μM, approximately 5 min incubation
Target sequence in this assay (C7C422 37-270 limits assumed): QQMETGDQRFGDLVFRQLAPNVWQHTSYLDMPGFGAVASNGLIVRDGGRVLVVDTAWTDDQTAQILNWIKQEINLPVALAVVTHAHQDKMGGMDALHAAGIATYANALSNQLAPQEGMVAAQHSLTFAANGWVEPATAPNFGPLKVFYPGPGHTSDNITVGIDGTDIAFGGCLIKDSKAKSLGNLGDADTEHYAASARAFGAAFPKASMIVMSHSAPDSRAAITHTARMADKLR

[6] = biological target: VIM-2 (Escherichia coli, UniProt Q5U7L7); type: binding; details: VIM-2 10 μM, inhibitor 50 μM, approximately 5 min incubation
[7] = read-out: Kd for Zn(II) ions; cited from earlier work
[8] = read-out: Percent Inhibition against NDM-1

Question: With `N[C@H](CN[C@H](CN[C@@H](CC(=O)O)C(=O)O)C(=O)O)C(=O)O` [AMA, Aspergillomarasmine A] as the compound, how does the pIC50 [1] read?
Answer: 5.15 to 5.40

Question: And the “ability to restore meropenem activity in vivo” value [2]?
Answer: restore meropenem activity

Question: Which “Percent Inhibition against NDM-1” value ([3]; compound at 200 μM) does the source give for `CN(CC(=O)O)CC(=O)O` [Compound 1] here?
Answer: 80%

Question: And the “Percent Inhibition against NDM-1” value ([3]; compound at 250 μM)?
Answer: 90%

Question: And the “∆Tm” value [4]?
Answer: 1.9±0.2 °C

Question: What about the “Complex observed by native ESI-MS” value [5] of the same compound?
Answer: 2Zn: NDM-1:1

Question: And the “Complex observed by native ESI-MS” value [6]?
Answer: 2Zn: VIM-2:1

Question: For `O=C(O)CN(CC(=O)O)Cc1ccccc1` [Compound 11], which “Percent Inhibition against NDM-1” value ([3]; compound at 250 μM) is on record?
Answer: 65%

Question: For `CN(CCC(=O)O)CC(=O)O` [Compound 13a, 3-((Carboxymethyl)(methyl)amino)propanoic acid], which “Percent Inhibition against NDM-1” value ([3]; compound at 250 μM) is on record?
Answer: complete loss of activity

Question: With `O=C(O)CCN(CC(=O)O)Cc1ccccc1` [Compound 13b, 3-(Benzyl(carboxymethyl)amino)propanoic acid] as the compound, how does the “Percent Inhibition against NDM-1” value ([3]; compound at 250 μM) read?
Answer: complete loss of activity

Question: Which “Percent Inhibition against NDM-1” value ([3]; compound at 250 μM) does the source give for `O=C(O)CN(CCP(=O)(O)O)Cc1ccccc1` [Compound 15, N-Benzyl-N-(2-phosphonoethyl)glycine] here?
Answer: no inhibition

Question: With `O=C(O)CN(Cc1ccccc1)Cc1nnn[nH]1` [Compound 17, N-((1H-tetrazol-5-yl)methyl)-N-benzylglycine] as the compound, how does the “Percent Inhibition against NDM-1” value ([3]; compound at 250 μM) read?
Answer: comparable to that of 11

Question: With `O=C(O)CN(CCc1ccccc1)CC(=O)O` [Compound 21a, 2,2’-(Phenethylazanediyl)diacetic acid] as the compound, how does the inhibition at 250 µM [3, 8] read?
Answer: 56 to 76%

Question: With `O=C(O)CN(CC(=O)O)Cc1ccc(-c2ccccc2)cc1` [Compound 21b, 2,2’-(([1,1’-Biphenyl]-4-ylmethyl)azanediyl)diacetic acid] as the compound, how does the inhibition at 250 µM [3, 8] read?
Answer: 56 to 76%

Question: With `O=C(O)CN(CC(=O)O)Cc1cccc(-c2ccccc2)c1` [Compound 21c, 2,2’-(([1,1’-Biphenyl]-3-ylmethyl)azanediyl)diacetic acid] as the compound, how does the inhibition at 250 µM [3, 8] read?
Answer: 56 to 76%

Question: Which inhibition at 250 µM [3, 8] does the source give for `O=C(O)CN(CC(=O)O)Cc1ccsc1` [Compound 21h, 2,2’-((Thiophen-3-ylmethyl)azanediyl)diacetic acid] here?
Answer: 64%

Question: With `O=C(O)CN(CC(=O)O)Cc1ccoc1` [Compound 21i, 2,2’-((Furan-3-ylmethyl)azanediyl)diacetic acid] as the compound, how does the inhibition at 250 µM [3, 8] read?
Answer: ~99%

Question: And the “∆Tm” value [4]?
Answer: 3.4±0.3 °C

Question: Which “Percent Inhibition against NDM-1” value ([3]; compound at 250 μM) does the source give for `O=C(O)CN(CC(=O)O)S(=O)(=O)c1ccccc1` [Compound 21j, 2,2’-((Phenylsulfonyl)azanediyl)diacetic acid] here?
Answer: complete loss of activity

Question: With `O=C(O)CN(CC(=O)O)S(=O)(=O)Cc1ccccc1` [Compound 21k, 2,2’-((Benzylsulfonyl)azanediyl)diacetic acid] as the compound, how does the “Percent Inhibition against NDM-1” value ([3]; compound at 250 μM) read?
Answer: complete loss of activity

Question: Which “Percent Inhibition against NDM-1” value ([3]; compound at 250 μM) does the source give for `O=C(O)CN(CC(=O)O)S(=O)(=O)c1cccs1` [Compound 21l, 2,2’-((Thiophen-2-ylsulfonyl)azanediyl)diacetic acid] here?
Answer: ~ 20%

Question: For `O=C(O)CN(CC(=O)O)S(=O)(=O)c1cc2ccccc2s1` [Compound 21m, 2,2’-((Benzo[b]thiophen-2-ylsulfonyl)azanediyl)diacetic acid], which “Percent Inhibition against NDM-1” value ([3]; compound at 250 μM) is on record?
Answer: ~ 20%

Question: Which “∆Tm” value [4] does the source give for `O=C(O)CN(CC(=O)O)Cc1cccs1` [Compound 23a, 2,2’-((Thiophen-2-ylmethyl)azanediyl)diacetic acid] here?
Answer: 3.1±0.1 °C

Question: Which “∆Tm” value [4] does the source give for `O=C(O)CN(CC(=O)O)Cc1ccco1` [Compound 23b, 2,2’-((Furan-2-ylmethyl)azanediyl)diacetic acid] here?
Answer: 1.6±0.4 °C

Question: Which “Complex observed by native ESI-MS” value [5] does the source give for `Cc1ccc(CN(CC(=O)O)CC(=O)O)s1` [Compound 23c, 2,2’-(((5-Methylthiophen-2-yl)methyl)azanediyl)diacetic acid] here?
Answer: 2Zn: NDM-1:23c

Question: And the “Complex observed by native ESI-MS” value [6]?
Answer: 2Zn: VIM-2:23c

Question: For `Cc1ccc(CN(CC(=O)O)CC(=O)O)o1` [Compound 23d, 2,2’-(((5-Methylfuran-2-yl)methyl)azanediyl)diacetic acid], which “∆Tm” value [4] is on record?
Answer: 3.4±0.2 °C

Question: And the “Complex observed by native ESI-MS” value [5]?
Answer: 2Zn: NDM-1:23d

Question: What about the “Complex observed by native ESI-MS” value [6] of the same compound?
Answer: 2Zn: VIM-2:23d

Question: Which results are given for `O=C(O)CN(CCc1cccs1)CC(=O)O` [Compound 23e, 2,2’-((2-(Thiophen-2-yl)ethyl)azanediyl)diacetic acid]?
Answer: ∆Tm [4]: 1.7±0.2 °C; Complex observed by native ESI-MS [5]: 2Zn: NDM-1:23e; Complex observed by native ESI-MS [6]: 2Zn: VIM-2:23e

Question: With `O=C(O)CN(CCc1ccco1)CC(=O)O` [Compound 23f, 2,2’-((2-(Furan-2-yl)ethyl)azanediyl)diacetic acid] as the compound, how does the pKi [3] read?
Answer: 5.59

Question: And the “fold improvement in inhibitory activity” value ([3]; ethyl-linker (23f) versus methyl-linker (23b))?
Answer: 2.5 fold

Question: And the “∆Tm” value [4]?
Answer: 1.5±0.1 °C

Question: What about the “Complex observed by native ESI-MS” value [5] of the same compound?
Answer: 2Zn: NDM-1:23f

Question: And the “Complex observed by native ESI-MS” value [6]?
Answer: 2Zn: VIM-2:23f

Question: Which “∆Tm” value [4] does the source give for `O=C(O)CN(CC(=O)O)Cc1ccc(Br)s1` [Compound 23g, 2,2’-(((5-Bromothiophen-2-yl)methyl)azanediyl)diacetic acid] here?
Answer: 3.0±0.3 °C

Question: Which “∆Tm” value [4] does the source give for `O=C(O)c1cccc(C(=O)O)n1` [DPA, dipicolinic acid, reference compound] here?
Answer: −14.5±0.2 °C

Question: And the “Complex observed by native ESI-MS” value [5]?
Answer: 0Zn: NDM-1 and 1Zn: NDM-1 and 2Zn: NDM-1

Question: And the “Complex observed by native ESI-MS” value [6]?
Answer: 0Zn: VIM-2:DPA

Question: For `O=C(O)CN(CCN(CC(=O)O)CC(=O)O)CC(=O)O` [EDTA, reference compound], which “Complex observed by native ESI-MS” value [5] is on record?
Answer: metal free NDM-1

Question: For `O=C(O)CNCC(=O)O` [IDA, Iminodiacetic acid], which inhibition at 200 µM [3, 8] is on record?
Answer: 48%

Question: And the pKd [7]?
Answer: 4.49
